From US20070213402A1, “Compounds which interact with the thyroid hormone receptor for the treatment of fibrotic disease” (priority 1998, published 2007) come the findings set out here.

For the assay, the target named is T1, glucocorticoid receptor (Homo sapiens, UniProt P04150).
T1 construct: expressed in transfected cells; host or cells: CV1 (transformed African Green Monkey kidney cell line)
T1 sequence (P04150 1-777): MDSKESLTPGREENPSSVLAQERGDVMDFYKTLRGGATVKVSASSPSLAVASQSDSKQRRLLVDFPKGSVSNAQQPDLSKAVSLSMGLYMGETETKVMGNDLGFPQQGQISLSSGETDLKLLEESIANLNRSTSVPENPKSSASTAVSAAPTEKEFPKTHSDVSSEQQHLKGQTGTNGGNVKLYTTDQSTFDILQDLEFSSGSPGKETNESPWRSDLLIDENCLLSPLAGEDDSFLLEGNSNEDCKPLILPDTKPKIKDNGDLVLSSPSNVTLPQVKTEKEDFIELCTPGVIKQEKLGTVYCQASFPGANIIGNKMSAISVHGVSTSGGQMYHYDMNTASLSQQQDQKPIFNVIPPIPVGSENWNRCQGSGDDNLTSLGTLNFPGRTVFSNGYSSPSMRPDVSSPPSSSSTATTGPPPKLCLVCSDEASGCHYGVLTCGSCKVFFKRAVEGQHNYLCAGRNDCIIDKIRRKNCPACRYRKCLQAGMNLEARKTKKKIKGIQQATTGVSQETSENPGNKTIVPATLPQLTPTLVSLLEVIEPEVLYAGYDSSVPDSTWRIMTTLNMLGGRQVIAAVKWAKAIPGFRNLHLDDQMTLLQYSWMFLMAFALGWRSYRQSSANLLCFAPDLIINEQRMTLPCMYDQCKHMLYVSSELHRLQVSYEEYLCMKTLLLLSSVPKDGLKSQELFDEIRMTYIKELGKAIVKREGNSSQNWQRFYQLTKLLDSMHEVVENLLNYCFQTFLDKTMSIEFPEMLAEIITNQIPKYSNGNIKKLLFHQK
As to the kind of experiment: Experiment 2: PGL3MMTV-luciferase transactivation in CV1 cells with glucocorticoid receptor (GR1). Particulars: for % control (GR1): Blank = 100. It is filed as cell-based. The source says: Two plasmid constructs were introduced by standard calcium phosphate precipitation of DNA followed by glycerol shock (Ausubel F M, Brent R, Kingston D D, Moore J G et al Current protocols in molecular biology 1994 Greene Publishing Associates/Wiley-Interscience, New York, N.Y.) using a transformed African Green Monkey kidney cell line (CV1) (Schneikert J, Peterziel H, Defossez P-A, Klocker H, de Launoit Y and Cato A C B Androgen receptor-Ets protein interaction is a novel mechanism for steroid hormone-mediated down-modulation of matrix metalloproteinase expression, Journal of Biological Chemistry. Vol 271(39) (pp 23907-23913), 1996).
This experiment was intended to investigate the activation of androgen and corticosteroid receptors by compound I.
CPII was compound II above, clobuzarit, which was used at 10^−7M.

The mark [1] stands for this setting: CPII 10^-7M together with Dex 10^-7M.

Take `CC(C)(OCc1ccc(-c2ccc(Cl)cc2)cc1)C(=O)O` [Compound II, 1-[4-(4-chlorophenyl)benzyloxy]-1-methylpropionic acid]: under “10^-7M, compared with Dex”, the “activation of glucocorticoid receptor-driven transcription, in words” value is “negligible activity”. In addition, the “Raw counts (GR1)” value by setting is: under setting [1], 748249 counts; (substance alone at 10^-7M) 3272 counts. Besides, the “% control (GR1)” value runs as follows: under setting [1], 20965%; (substance alone at 10^-7M) 92%.
